Results: patent US4109011A, “Insecticide carbamates of N-(polychloroallyl)-amino-phenols” (priority 1975, dated 1978)
Like-named read-outs stand apart in the source and are kept apart here.

Legend:
Macrosiphum Euphorbiae = experiment: Biological activity on Macrosiphum euphorbiae (aphides), potato seedlings sprayed with aqueous dispersion; assay type: in vivo
Protocol: Biological Activity on Macrosiphum Euphorbiae (Aphides)
Potato seedlings, cultivated in pots, were infested with adult aphide females and, after a few hours, were sprayed with an aqueous dispersion of the compounds listed in Table 6. The mortality percentage was determined 24 hours after the treatment (on control non-treated seedlings, the mortality percentage was 0).
(§1) To show the variation in activity from one compound to another, depending on the species used, the activities of compounds according to this invention were investigated at different concentrations, expressed as percent of active principle, on various infesting species. The mortality percentage was computed in the same way as in the preceding examples.

Tetranychus Urticae = experiment: Biological activity on Tetranychus urticae eggs, bean leaf discs; assay type: in vivo
Description: Biological Activity on Tetranychus Urticae (Acari)
Small discs of bean leaves were infested with acarus eggs and successively treated by spraying with an aqueous dispersion of a compound of this invention and Aminocarb as a comparison, at concentrations of 0.1 and 0.01%. The mortality percentage of the control, untreated discs, was zero.
as §1

Pieris Brassicae [1] = experiment: Biological activity on Pieris brassicae larvae, sprayed cut cauliflower leaves; assay type: in vivo
Description: Biological Activity on Pieris Brassicae (Lepidoptera)
Cut leaves of cauliflower were sprayed with an aqueous dispersion of compound according to this invention at a 0.1% concentration. After drying, they were infested with 5-day old larvae. The mortality percentage of the control, untreated leaves, was zero.
as §1

Spodoptera Littoralis [2] = experiment: Biological activity on Spodoptera littoralis larvae, sprayed cut tobacco leaves; assay type: in vivo
Description: Biological Activity on Spodoptera Littoralis (Lepidoptera)
Cut tobacco leaves were sprayed with a 0.1% aqueous dispersion of compounds according to the present invention, shown in Table 12. After drying, the leaves were infested with 5-day old lepidopter larvae. The mortality percentage of the control was zero.
as §1

Pieris Brassicae [3] = experiment: Persistence of insecticidal activity in the field, Pieris brassicae on cauliflower plants; assay type: in vivo; details: 0.5 percent; for mortality at 0.5 %: read-out: Mortality Percent of Pieris Brassicae Larvae
Description: The persistence of insecticidal activity in the field using the insect Pieris brassicae was examined as follows:
Cauliflower plants grown under natural conditions in the field were sprinkled with an aqueous suspension of compounds according to this invention identified hereinabove as M 7361 and M 8157. For purposes of comparison, cauliflower plants were sprinkled with an aqueous suspension of a compound according to U.S. Pat. No. 3,819,678, identified hereinabove as M 7481.
After the respective time periods shown in Table 15, leaves of the sprinkled plants were picked and brought to the laboratory where they were infested with 10-day old larvae of Pieris brassicae and then kept under observation. The percent of mortality of the insects was determined 48 hours after infestation in all cases. The percent mortality of the control, unsprinkled cauliflower leaves, was zero.

Spodoptera Littoralis [4] = experiment: Persistence of insecticidal activity in the field, Spodoptera littoralis on Ricinus plants; assay type: in vivo; details: one percent, read-out: Mortality Percent of Spodoptera Littoralis Larvae
Description: The persistence of insecticidal activity in the field using the insect Spodoptera littoralis was examined as follows:
Ricinus plants grown in the field under natural conditions were sprinkled with an aqueous suspension of the insecticidal compounds according to this invention designated hereinabove as M 7361 and M 8157. For purposes of comparison, an aqueous suspension of each of M 7481 and M 7488, according to U.S. Pat. No. 3,819,678 and identified above, was sprinkled on similarly grown Ricinus plants.
After the time periods shown in Table 16, leaves of the sprinkled plants were picked and brought to the laboratory where they were infested with 10-day old larvae of Spodoptera littoralis and then kept under observation. The mortality percent of the control unsprinkled leaves was zero.

[5] = tested on: Leptinotarsa decemlineata; experiment: Persistence of insecticidal activity in the field, Leptinotarsa decemlineata on potato plants; assay type: in vivo; details: 0.2 percent
Description: The persistence of insecticidal activity in the field using the insect Leptinotarsa decemlineata was examined as follows:
Potato plants grown in the field under natural conditions were sprinkled with an aqueous suspension of compound M 7361 which is according to this invention and identified hereinabove. For purposes of comparison, similarly grown potato plants were sprinkled with an aqueous suspension of the compounds M 7488 and M 7481, respectively, both according to U.S. Pat. No. 3,819,678 and identified above.
After the time periods shown in Table 17, leaves of the sprinkled plants were picked and brought to the laboratory where they were infested with 10 day-old larvae of Leptinotarsa decemlineata and then kept under observation. After 48 hours, the percent of mortality of the insects was determined. The mortality percent of the control unsprinkled leaves was zero.

[6] = tested on: Leptinotarsa Decimlineata; experiment: Biological activity on Leptinotarsa decemlineata larvae, sprayed potato seedlings; assay type: in vivo; details: read-out: Percent of Mortality
Meloidogyne Incognita = experiment: Biological activity on Meloidogyne incognita (nematocide activity, galls on tomato seedlings); assay type: in vivo; details: vs control
Protocol: Biological Activity on Meloidogyne Incognita (Nematoda)
A 1:1 mixture of field earth and sand infested by new-born larvae and eggs of the nematode was treated by uniformly mixing with a hydroacetone dispersion (20% by vol. of acetone) at a concentration of 0.1% and of 0.02% of the compounds under test so as to get soil samples containing 100 ppm and 20 ppm, respectively, of active principle. The soil was introduced into plastic pots and after 5 days, 5 tomato seedlings about 15 cm high were transplanted into each of them. Fourteen days after transplantation, the roots of the seedlings extracted from the soil were examined in order to determine the degree of infestation by counting the galls which had formed.
The nematocide activity is expressed in Table 13 as the percentage of infestation reduction with respect to the control (seedlings transplanted into the same soil treated with a dispersion free from active principle).

Culex Pipiens = experiment: Biological activity on Culex pipiens (mosquito larvae in aqueous dispersion); assay type: in vivo
Description: Biological Activity on Culex Pipiens (Diptera)
Mosquito larvae of the third and fourth ages were introduced into glass pots containing an aqueous dispersion of the compounds shown at 2 ppm and 0.2 ppm.
as §1

[7] = tested on: Leptinotarsa Decimlineata; experiment: Biological activity on Leptinotarsa decemlineata larvae, sprayed potato seedlings; assay type: in vivo
Description: Biological Activity on Leptinotarsa Decimlineata Coleoptera
Potato seedlings cultivated in pots were infested with 4-day old larvae and sprayed with an aqueous dispersion of the compounds according to this invention and Aminocarb as a comparison at doses of […]; respectively. The mortality percentage of the control, untreated seedlings, was zero.
as §1

[8] = Acute toxicity on white rats, administered orally; details: rat, in vivo, po
[9] = 24 h, read-out: Mortality Percent
[10] = foliar, read-out: Percent of Mortality
[11] = 0.1 percent, larvae, read-out: Percent of Mortality
[12] = 120 h, 5 days after field treatment
[13] = 216 h, 9 days after field treatment
[14] = 336 h, 14 days after field treatment
[15] = 408 h, 17 days after field treatment
[16] = 528 h, 22 days after field treatment
[17] = 264 h, 11 days after field treatment
[18] = 432 h, 18 days after field treatment
[19] = 600 h, 25 days after field treatment
[20] = 96 h, 4 days after field treatment
[21] = 168 h, 7 days after field treatment
[22] = 24 h, read-out: Percent of Mortality
[23] = read-out: % mort. Macrosiphum Euphorbiae
[24] = read-out: % mort. Leptinot. Decemlin.

SMILES	mortality at 0.01 % (Macrosiphum Euphorbiae; [9]) [%]	mortality at 0.1 % (Pieris Brassicae [1]; [11]) [%]	mortality at 0.5 % (Pieris Brassicae [3]; 2 hours after field treatment) [%]	mortality at 0.5 % (Pieris Brassicae [3]; [12]) [%]	mortality at 0.5 % (Pieris Brassicae [3]; [13]) [%]	mortality at 0.5 % (Pieris Brassicae [3]; [14]) [%]	mortality at 0.5 % (Pieris Brassicae [3]; [15]) [%]	mortality at 0.5 % (Pieris Brassicae [3]; [16]) [%]	mortality at 1 % (Spodoptera Littoralis [4]; [12]) [%]	mortality at 1 % (Spodoptera Littoralis [4]; [17]) [%]	mortality at 1 % (Spodoptera Littoralis [4]; [14]) [%]	mortality at 1 % (Spodoptera Littoralis [4]; [18]) [%]	mortality at 1 % (Spodoptera Littoralis [4]; [19]) [%]	mortality at 1 % (Spodoptera Littoralis [4]; 2 hours after field treatment) [%]	mortality at 0.2 % ([5]; 2 hours after field treatment) [%]	mortality at 0.2 % [5, 20] [%]	mortality at 0.2 % [5, 21] [%]	mortality at 0.2 % [5, 17] [%]	mortality at 0.2 % [5, 18] [%]	mortality at 0.2 % [5, 19] [%]	also measured
CNC(=O)Oc1cc(C)ccc1NCC(Cl)=C(Cl)Cl [M 6773, N-methylcarbamate of 3-methyl-6-(2,3,3-trichloroallylamino)-phenol]	75																				
CNC(=O)Oc1ccc(NCC(Cl)=C(Cl)Cl)c(C)c1 [M 6737]		100																			mortality at 0.01 % (Tetranychus Urticae; [10]): 80%; mortality at 0.1 % (Tetranychus Urticae; [10]): 100%; mortality at 0.1 % (Spodoptera Littoralis [2]; 0.1 percent, larvae, 48 hours, read-out: Percent of Mortality): 100%
CNC(=O)Oc1cc(C)c(N(C)CC=C(Cl)Cl)c(C)c1 [M 7481, reference compound]			100	55	30	0	0	0	100	77	60	47	40	100	100	60	20	0	0	0	time after which totally ineffective in the field (Pieris Brassicae [3]): 14 days; time at which activity begins to be lost in the field (Pieris Brassicae [3]): 2 to 5 days
CNC(=O)Oc1cccc(NCC=C(Cl)Cl)c1 [M 6370]	100	90																			mortality at 0.01 % [6]: 100%; Reduction of Infestation (Meloidogyne Incognita; 20 ppm in soil): 100%; Reduction of Infestation (Meloidogyne Incognita; 100 ppm in soil): 100%; mortality at 0.2 ppm (Culex Pipiens; [22]): 17%; mortality at 2 ppm (Culex Pipiens; [22]): 94%; mortality at 0.1 % ([7]; read-out: Percent of Mortality): 100%; LD50 [8]: 100 mg/kg
CNC(=O)Oc1cccc(NCC(Cl)=C(Cl)Cl)c1 [M 6740]																					mortality at 0.01 % [6]: 100%; mortality at 2 ppm (Culex Pipiens; [22]): 100%; mortality at 0.1 % ([7]; read-out: Percent of Mortality): 100%
CNC(=O)Oc1cc(C)c(NCC=C(Cl)Cl)c(C)c1 [M 7361]			100	100	100	100	100	100	100	100	100	100	100	100	100	100	100	100	100	73	period for which insecticidal activity is fully retained in the field (Pieris Brassicae [3]): at least 22 days; mortality at 1 % (Tetranychus Urticae; topical, read-out: % mort. Tetran. Urt. eggs): 13%; mortality at 0.01 % (Macrosiphum Euphorbiae; [23]): 17%; mortality at 0.1 % (Macrosiphum Euphorbiae; [23]): 81%; mortality at 1 % (Macrosiphum Euphorbiae; [23]): 100%; mortality at 2 ppm (Culex Pipiens; read-out: % mort. Culex Pipiens): 40%; mortality at 0.01 % [7, 24]: 52%; mortality at 0.1 % [7, 24]: 97%; mortality at 1 % [7, 24]: 100%; mortality at 0.01 % (Pieris Brassicae [1]; Table 14, 0.01% a.p., read-out: % mort. Pieris Brassicae): 15%; mortality at 0.1 % (Pieris Brassicae [1]; Table 14, 0.1% a.p., read-out: % mort. Pieris Brassicae): 97%; mortality at 1 % (Pieris Brassicae [1]; Table 14, 1% a.p., read-out: % mort. Pieris Brassicae): 100%; mortality at 0.01 % (Spodoptera Littoralis [2]; 48 h, Table 14, 0.01% a.p., read-out: % mort. Spodopt. Littoralis): 7%; mortality at 0.1 % (Spodoptera Littoralis [2]; 48 h, Table 14, 0.1% a.p., read-out: % mort. Spodopt. Littoralis): 72%; mortality at 1 % (Spodoptera Littoralis [2]; 48 h, Table 14, 1% a.p., read-out: % mort. Spodopt. Littoralis): 100%
